Reference: PMC6211230, “Assessment of the antiproliferative and apoptotic roles of sulfonamide carbonic anhydrase IX inhibitors in HeLa cancer cell line” (Journal of Enzyme Inhibition and Medicinal Chemistry, 2018)
“Also recorded” adds a separate entry of the source.

System: HeLa cells
Assay: Intracellular free amino acids by LC-MS/MS
Format: cell-based, human
Details: 25 μM, 24 h, vs negative control
Procedure: The intracellular free amino acid level was measured according to the Chen et al method. HeLa cells were planted in 10 cm^2 cell culture dishes, and following 24 h treatment with sulfonamide at a dose of 25 μM, the growth medium was poured out, and the cells were swiftly washed twice with 5 ml cold PBS. Pre-cooled MeOH (−60 °C) was added, and the cells were stripped with a cell scraper. The cell suspension obtained was replaced in 15 ml conic tubes. The samples were kept in liquid nitrogen for 10 min and then dissolved on ice, which was triplicated until the cells were shredded. The samples were centrifuged at 3.000 g at 4 °C, for 30 min, and the supernatants were transferred to new tubes. The amino acid level in the supernatant was measured using LC-MS/MS according to the protocol of the Jasem kit. The Jasem free amino acid assay kit is used for studies involving the diagnosis of various hereditary metabolic disorders and the feeding of newborns with hereditary metabolic disorders. In this study, the protocol used to determine the intracellular free amino acid is as follows. […] 27 amino acids in the acquired supernatant were analysed in HPLC vials using LC-MS/MS (Shimadzu 8045, Kyoto, Japan). The residual pellet was lysed in 1 ml lysis buffer, protein concentration of which was detected using the BCA protein assay kit (Thermo Fisher Scientific, Waltham, MA, USA). […]

## NS(=O)(=O)c1ccc(CCN=Cc2cc(Cl)ccc2O)cc1 [Compound A-1]
  intracellular free amino acid levels: the amino acids showed a decline as compared to the negative control group; also recorded: increase in tyrosine levels and a reduction in other amino acids
